Measurements from publication PMC4664883, “Selective targeting of nuclear receptor FXR by avermectin analogues with therapeutic effects on nonalcoholic fatty liver disease” (Scientific Reports, 2015).

Experiments:
FXR N283L mutation = assay: Reporter assay with mutated FXR; assay type: cell-based; settings: 1 μM, Fig. 8e
Excerpt: R331M mutation was supposed to strengthen the hydrophobic interactions by displacing the corresponding residue of polar arginine to a hydrophobic methionine (Fig. 8b). Accordingly, this mutation increased the ability to be activated by avermectin ligands (Fig. 8e). For H447F mutation, the corresponding residue of histidine with a side chain of imidazole group was replaced by the nonpolar phenylalanine with a side chain of benzene ring (Fig. 8c). […] N283L mutation disrupts a key hydrogen bond between FXR and avermectin compounds (Fig. 8d).

KK-Ay mice = assay: High-fat diet fed KK-Ay mice treated 14 days (liver histology, metabolic parameters, GTT, ITT); assay type: in vivo; settings: KK-Ay mice, high-fat diet, i.p. once daily 14 days; avermectin analogues 1.3 mg/kg, GW4064 30 mg/kg
Method: To further confirm the lipid accumulation, we performed oil red O staining of the frozen liver sections (Fig. 2c).
10 weeks age KK-Ay mice and C57BL/6J, homozygous FXR deficient (FXR^–/–) mice were maintained under environmentally controlled conditions with free access to standard chow diet and water as described previously. Animal experiments were conducted in the barrier facility of the Laboratory Animal Center, Xiamen University, approved by the Institutional Animal Use and Care Committee of Xiamen University, China, and the methods were carried out in accordance with the approved guidelines. Mice were fed with high fat diet containing 60% fat, 20% protein and 20% carbohydrate (Research Diets, D12492, New Brunswick, USA), and the food intake were measured every second day. […] After 6 h fasting, mice were weighed and sacrificed. Livers were weighed and taken photos, and part of each liver was fixed in 4% paraformaldehyde. Liver histology characterization was analyzed by haematoxylin and eosin (H&E) staining with paraffin-embedded sections by standard procedures. Other tissues were collected and frozen in liquid nitrogen for use, and serums were collected to measure metabolite parameters.
Fresh liver tissues were embedded in optimum cutting temperature compound (OCT) and cryosectioned. The sections were fixed in 4% paraformaldehyde in PBS, and were stained with 0.3% oil red O according to standard procedures.
Mice treated with compounds for 10 days were fasted for 6 h with free access to water. For the glucose tolerance test (GTT), 1 g/kg of glucose was i.p. injected and blood glucose was measured with the Accu-Check Performa (Roche Applied Science, Mannheim, Germany) at 0, 30, 60, 90, 120,150 and 180 min. For the insulin tolerance test (ITT), 1 U/kg of recombinant human insulin (Novolin 30R; Novo Nordisk, Bagsvaerd, Denmark) was i.p. injected, and blood glucose was measured at 0, 30, 60, 120 and 150 min after insulin injection.
Serum glucose was analyzed using glucose oxidase method (Applygen, Beijing, China). Serum cholesterol and triglyceride were analyzed using Cholesterol Assay Kit and Triglyceride Assay Kit (Bioassay Systems, USA), respectively. Liver triglyceride was analyzed using Tissue triglyceride assay kit (Applygen, Beijing, China).

medaka eleutheroembryo = settings: cited from earlier work
mice = tested on: mice; design: method as in PMID 21632533; settings: cited from earlier work
FXR A291W mutation = assay: Reporter assay with mutated FXR; assay type: cell-based; settings: 1 μM, Fig. 8e
[1] = design: method as in PMID 10956205, PMID 25388536, PMID 19586769; settings: in rat; cited from earlier work

Structure (SMILES): CC(C)c1onc(-c2c(Cl)cccc2Cl)c1COc1ccc(/C=C/c2cccc(C(=O)O)c2)c(Cl)c1 [GW4064]
- transcriptional activity of N283L mutated FXR (FXR N283L mutation): retained the ability to be activated
- hepatic lipid / steatosis by H&E staining of liver sections (KK-Ay mice): slightly reduced the hepatic lipid
- lipid accumulation by oil red O staining of liver sections (KK-Ay mice): slightly reduced the lipid accumulation
- liver morphology (colour) (KK-Ay mice): a little fresh red
- hepatobiliary toxicity (medaka eleutheroembryo): hepatobiliary injury
- body weight and fat effect (mice): weight gain and fat accumulation
- transcriptional activity of A291W mutated FXR (FXR A291W mutation): abolished the transcriptional activity
- t1/2 [1]: < 1 h
